This note sets out measurements from patent US20240287070A1, “FUSED HETEROCYCLIC DERIVATIVES” (Janssen Sciences Ireland Unlimited Company, priority 2021, published 2024).

The subject of data set [1] is HBV (HepG2.117 cell line, inducibly HBV producing). The experiment in a line: Anti-HBV activity, intracellular HBV DNA by real-time PCR in HepG2.117 cell line. The class given is cell-based, hepatitis B virus. Particulars: HepG2.117 cells, 3 days of treatment. In short, it runs like this: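 First, HBV replication is induced in HepG2.117 cells by doxycycline absence. Next, serially diluted compound is added for 3 days. Finally, intracellular HBV DNA is quantified by HBV-specific real-time PCR.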

The subject of a further data set is HepG2 or HepG2.117 cells. The data set is described as follows: Cytotoxicity, ATPlite Luminescence Assay. It counts as cell-based, human. Particulars: 3-days incubation unless marked with *. In short, it runs like this:
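Compounds were added to cells and incubated 3 or 4 days. ATP content was then measured by luminescence to gauge cell viability.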

Data set [2] is described as follows: Human liver microsome stability. The class given is in vitro ADME. Particulars: pooled human liver microsomes 0.5 mg/mL, 1 μM compound, NADPH 1 mM, 37° C., 0-60 min. In short, it runs like this: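 Half-life came from elimination rate constant (negative slope of ln compound/internal standard area ratio over time), measured by cassette LC-MS after acetonitrile quench. Human liver microsome reactions, one replicate per compound, were initiated with NADPH (1 mM final) and sampled at six points up to 60 min.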

The compound `CC(c1ccc(N2CCCC2=O)cc1)N1C[C@@H](C)n2nc3c(c2C1=O)CN(C(=O)c1ccc(Cl)c(C#N)c1)[C@H](C)C3` (single isomer, unassigned) [Compound 9B, 2-Chloro-5-((3R,7R)-3,7-dimethyl-10-oxo-9-((S*)-1-(4-(2-oxopyrrolidin-1-yl)phenyl)ethyl)-1,2,3,4,7,8,9,10-octahydropyrido[4′,3′:3,4]pyrazolo[1,5-a]pyrazine-2-carbonyl)benzonitrile] showed an EC50 in data set [1] of 0.02 µM. The compound further registered a CC50 in the data set with HepG2 or HepG2.117 cells greater than 50 µM. Moreover, the “HLM Metabolism t1/2” value in data set [2] was determined as 1.83 h.
As to `CC(c1ccc(-n2cncn2)cc1)N1C[C@@H](C)n2nc3c(c2C1=O)CN(C(=O)c1ccc(Cl)c(C#N)c1)[C@H](C)C3` (single isomer, unassigned) [Compound 11B, 5-((3R,7R)-9-((S*)-1-(4-(1H-1,2,4-triazol-1-yl)phenyl)ethyl)-3,7-dimethyl-10-oxo-1,2,3,4,7,8,9,10-octahydropyrido[4′,3′:3,4]pyrazolo[1,5-a]pyrazine-2-carbonyl)-2-chlorobenzonitrile], the EC50 in data set [1] worked out at 0.032 µM. Also, the CC50 in the data set on HepG2 or HepG2.117 cells is greater than 50 µM. For the same compound, the “HLM Metabolism t1/2” value in data set [2] is greater than 3 h.
The compound `CC(c1ccc(C(F)(F)F)nc1)N1C[C@@H](C)n2nc3c(c2C1=O)CN(C(=O)c1ccc(Cl)c(C#N)c1)[C@H](C)C3` (single isomer, unassigned) [Compound 12B, 2-Chloro-5-((3R,7R)-3,7-dimethyl-10-oxo-9-((S*)-1-(6-(trifluoromethyl)pyridin-3-yl)ethyl)-1,2,3,4,7,8,9,10-octahydropyrido[4′,3′:3,4]pyrazolo[1,5-a]pyrazine-2-carbonyl)benzonitrile] gave an EC50 in data set [1] of 0.068 µM. This compound also had a CC50 in the data set on HepG2 or HepG2.117 cells greater than 50 µM. Also, the “HLM Metabolism t1/2” value in data set [2] was greater than 3 h.
In the same order, the values of `CNC(=O)C1(Oc2ccc(C(C)N3C[C@@H](C)n4nc5c(c4C3=O)CN(C(=O)c3ccc(Cl)c(C#N)c3)[C@H](C)C5)cc2)CC1` (single isomer, unassigned) [Compound 13B, 1-(4-((S*)-1-((3R,7R)-2-(4-chloro-3-cyanobenzoyl)-3,7-dimethyl-10-oxo-1,2,3,4,7,8-hexahydropyrido[4′,3′:3,4]pyrazolo[1,5-a]pyrazin-9(10H)-yl)ethyl)phenoxy)-N-methylcyclopropanecarboxamide] are 0.091 µM, greater than 50 µM and 2.15 h.
The like results for `CC(c1ccc(C2(O)CC2)cc1)N1C[C@@H](C)n2nc3c(c2C1=O)CN(C(=O)c1ccc(Cl)c(C#N)c1)[C@H](C)C3` (single isomer, unassigned) [Compound 14B, 2-Chloro-5-((3R,7R)-9-((S*)-1-(4-(1-hydroxycyclopropyl)phenyl)ethyl)-3,7-dimethyl-10-oxo-1,2,3,4,7,8,9,10-octahydropyrido[4′,3′:3,4]pyrazolo[1,5-a]pyrazine-2-carbonyl)benzonitrile] were, in that order, 0.015 µM, greater than 50 µM and 1.17 h.
`CC(c1ccc(S(C)(=O)=O)cc1)N1C[C@@H](C)n2nc3c(c2C1=O)CN(C(=O)c1ccc(Cl)c(Cl)c1)[C@H](C)C3` (single isomer, unassigned) [Compound 15B, (3R,7R)-2-(3,4-dichlorobenzoyl)-3,7-dimethyl-9-((S*)-1-(4-(methylsulfonyl)phenyl)ethyl)-1,2,3,4,8,9-hexahydropyrido[4′,3′:3,4]pyrazolo[1,5-a]pyrazin-10(7H)-one] displayed an EC50 in data set [1] of 0.019 µM. Moreover, the CC50 in the data set with HepG2 or HepG2.117 cells was greater than 50 µM. In data set [2], the “HLM Metabolism t1/2” value was greater than 3 h.
`CC(c1ccc(S(N)(=O)=O)cc1)N1C[C@@H](C)n2nc3c(c2C1=O)CN(C(=O)c1ccc(Cl)c(Cl)c1)[C@H](C)C3` (single isomer, unassigned) [Compound 16B, 4-((S*)-1-((3R,7R)-2-(3,4-dichlorobenzoyl)-3,7-dimethyl-10-oxo-1,2,3,4,7,8-hexahydropyrido[4′,3′:3,4]pyrazolo[1,5-a]pyrazin-9(10H)-yl)ethyl)benzenesulfonamide] returned an EC50 in data set [1] of 0.059 µM. The compound also showed a CC50 in the data set on HepG2 or HepG2.117 cells greater than 50 µM. Also, the “HLM Metabolism t1/2” value in data set [2] is greater than 3 h.
As to `CNS(=O)(=O)c1ccc(C(C)N2C[C@@H](C)n3nc4c(c3C2=O)CN(C(=O)c2ccc(Cl)c(Cl)c2)[C@H](C)C4)cc1` (single isomer, unassigned) [Compound 17B, 4-((S*)-1-((3R,7R)-2-(3,4-dichlorobenzoyl)-3,7-dimethyl-10-oxo-1,3,4,7,8,10-hexahydropyrido[4′,3′:3,4]pyrazolo[1,5-a]pyrazin-9(2H)-yl)ethyl)-N-methylbenzenesulfonamide], a half-maximal effect in data set [1] (EC50) was put at 0.026 µM. This compound registered a CC50 in the data set with HepG2 or HepG2.117 cells greater than 50 µM. Further, the “HLM Metabolism t1/2” value in data set [2] turned out to be 1.6 h.
In the same order, the values of `CC(c1ccc(-c2ccn(C)n2)cc1)N1C[C@@H](C)n2nc3c(c2C1=O)CN(C(=O)c1ccc(Cl)c(C#N)c1)[C@H](C)C3` (single isomer, unassigned) [Compound 21B, 2-Chloro-5-((3R,7R)-3,7-dimethyl-9-((S*)-1-(4-(1-methyl-1H-pyrazol-3-yl)phenyl)ethyl)-10-oxo-1,2,3,4,7,8,9,10-octahydropyrido[4′,3′:3,4]pyrazolo[1,5-a]pyrazine-2-carbonyl)benzonitrile] are 0.012 µM, greater than 50 µM and 2.5 h.
As to `Cc1nnn(-c2ccc(C(C)N3C[C@@H](C)n4nc5c(c4C3=O)CN(C(=O)c3ccc(Cl)c(Cl)c3)[C@H](C)C5)cc2)n1` (single isomer, unassigned) [Compound 22B, (3R,7R)-2-(3,4-dichlorobenzoyl)-3,7-dimethyl-9-((S*)-1-(4-(5-methyl-2H-tetrazol-2-yl)phenyl)ethyl)-1,2,3,4,8,9-hexahydropyrido[4′,3′:3,4]pyrazolo[1,5-a]pyrazin-10(7H)-one], the EC50 in data set [1] is 0.02 µM. This compound came in with a CC50 in the data set with HepG2 or HepG2.117 cells greater than 50 µM. Moreover, the “HLM Metabolism t1/2” value in data set [2] was found to be 2.13 h.
In data set [1], `CNC(=O)C(c1ccc(OC(F)F)cc1)N1C[C@@H](C)n2nc3c(c2C1=O)CN(C(=O)c1ccc(Cl)c(Cl)c1)[C@H](C)C3` (single isomer, unassigned) [Compound 23B, (S*)-2-((3R,7R)-2-(3,4-dichlorobenzoyl)-3,7-dimethyl-10-oxo-1,3,4,7,8,10-hexahydropyrido[4′,3′:3,4]pyrazolo[1,5-a]pyrazin-9(2H)-yl)-2-(4-(difluoromethoxy)phenyl)-N-methylacetamide] displayed an EC50 of 0.24 µM. This compound also gave a CC50 with HepG2 or HepG2.117 cells of 49.3 µM. Moreover, the “HLM Metabolism t1/2” value in data set [2] was greater than 3 h.
`CNC(=O)c1ccc(C(C)N2C[C@@H](C)n3nc4c(c3C2=O)CN(C(=O)c2ccc(Cl)c(Cl)c2)[C@H](C)C4)cn1` (single isomer, unassigned) [Compound 24B, 5-((S*)-1-((3R,7R)-2-(3,4-dichlorobenzoyl)-3,7-dimethyl-10-oxo-1,3,4,7,8,10-hexahydropyrido[4′,3′:3,4]pyrazolo[1,5-a]pyrazin-9(2H)-yl)ethyl)-N-methylpicolinamide] yielded an EC50 in data set [1] of 0.02 µM. For the same compound, the CC50 in the data set on HepG2 or HepG2.117 cells was greater than 50 µM. In addition, the “HLM Metabolism t1/2” value in data set [2] is greater than 3 h.
For the compound `Cc1nnn(-c2ccc(C(C)N3C[C@@H](C)n4nc5c(c4C3=O)CN(C(=O)c3ccc(Cl)c(Cl)c3)[C@H](C)C5)cn2)n1` (single isomer, unassigned) [Compound 26B, (3R,7R)-2-(3,4-dichlorobenzoyl)-3,7-dimethyl-9-((S*)-1-(6-(5-methyl-2H-tetrazol-2-yl)pyridin-3-yl)ethyl)-1,2,3,4,8,9-hexahydropyrido[4′,3′:3,4]pyrazolo[1,5-a]pyrazin-10(7H)-one], the EC50 in data set [1] was 0.02 µM. In the data set with HepG2 or HepG2.117 cells, the CC50 is greater than 50 µM. Also, the “HLM Metabolism t1/2” value in data set [2] is 1.13 h.
In data set [1], `Cc1nnnn1-c1ccc(C(C)N2C[C@@H](C)n3nc4c(c3C2=O)CN(C(=O)c2ccc(Cl)c(Cl)c2)[C@H](C)C4)cn1` (single isomer, unassigned) [Compound 27B, (3R,7R)-2-(3,4-dichlorobenzoyl)-3,7-dimethyl-9-((S*)-1-(6-(5-methyl-1H-tetrazol-1-yl)pyridin-3-yl)ethyl)-1,2,3,4,8,9-hexahydropyrido[4′,3′:3,4]pyrazolo[1,5-a]pyrazin-10(7H)-one] gave an EC50 of 0.018 µM. The same compound returned a CC50 with HepG2 or HepG2.117 cells greater than 50 µM. In addition, the “HLM Metabolism t1/2” value in data set [2] was 1.39 h.
In turn, `CC(c1ccc(N2CCCS2(=O)=O)nc1)N1C[C@@H](C)n2nc3c(c2C1=O)CN(C(=O)c1ccc(Cl)c(C(F)(F)F)c1)[C@H](C)C3` (single isomer, unassigned) [Compound 28B, (3R,7R)-2-(4-chloro-3-(trifluoromethyl)benzoyl)-9-((S*)-1-(6-(1,1-dioxidoisothiazolidin-2-yl)pyridin-3-yl)ethyl)-3,7-dimethyl-1,2,3,4,8,9-hexahydropyrido[4′,3′: 3,4]pyrazolo[1,5-a]pyrazin-10(7H)-one] gave an EC50 in data set [1] of 0.011 µM. In addition, the CC50 in the data set on HepG2 or HepG2.117 cells was greater than 50 µM. The “HLM Metabolism t1/2” value in data set [2] stood at 2.37 h.
Take `CC(c1ccnc(Cl)c1)N1C[C@@H](C)n2nc3c(c2C1=O)CN(C(=O)c1ccc(Cl)c(Cl)c1)[C@H](C)C3` (single isomer, unassigned) [Compound 31B, (3R,7R)-9-((S*)-1-(2-chloropyridin-4-yl)ethyl)-2-(3,4-dichlorobenzoyl)-3,7-dimethyl-1,2,3,4,8,9-hexahydropyrido[4′,3′:3,4]pyrazolo[1,5-a]pyrazin-10(7H)-one]: the EC50 in data set [1] is 0.019 µM. In the data set on HepG2 or HepG2.117 cells, the CC50 was 22.7 µM. The “HLM Metabolism t1/2” value in data set [2] came out at 2.12 h.
